Measured values taken from patent US20160009752A1, “[…]-OXIMINO-AMINOALKYLETHERS AND PROCESS FOR PREPARATION THEREOF, USEFUL AS ANTIDIABETIC AND […] AGENTS” (COUNCIL OF SCIENTIFIC & INDUSTRIAL RESEARCH, priority 2013, published 2016).

Test system: Triton-induced hyperlipidemic rat model
Test: Antidyslipidaemic activity in Triton-induced hyperlipidemic rat model
Assay type: in vivo
Settings: summary of Tables 1-2
Procedure: Male charles foster rats weighing around 200 to 225 g were divided into control, dyslipidemic and dyslipidemic plus drug treated groups containing six animals in each group. Dyslipidemia was induced by administration of triton WR-1339 (200 mg/kg intraperitoneally). All animals were maintained on a special pellet diet and water ad libitum. Test compounds and standard drug (Gemfibrozil) were macerated in 0.2% aqueous gum acacia. The fine suspension of test compounds and standard drug were fed orally to the respective groups at the dose of 100 mg/kg simultaneously with triton WR-1339 in drug treated group. The animals of control group received the same amount of gum acacia by similar route of administration. […]
Total plasma cholesterol was estimated using the kit and instructions as provided by the manufacturer Roche Diagnostics. […] The hydrogen peroxide combines with hydroxybenzoic acid (HBA) and 4-aminoantipyrine (4-AAA) in the presence of peroxidase (POD) to form a red chromophore (quinoneimine) which is quantitated at 500-505 nm. […]
Total plasma triglycerides were estimated using the kit and instructions as provided by the manufacture i.e. Roche Diagnostics. […] In the presence of peroxidase, hydrogen peroxide oxidatively couples with 4-aminoantipyrine and 4-chlorophenol to produce red chromophore quinonimine which is quantitated at 500-505 nm. […]

Row | Compound | antidyslipidemic / antidiabetic activity, summary in words
1 | CCCCO/N=C(/C)C1=CC[C@H]2[C@@H]3CC=C4C[C@@H](O)CC[C@]4(C)[C@H]3CC[C@]12C [Compound 10a, 3β-Hydroxy-pregna-5,16-dien-20-one-O-n-butyl-oxime] | mainly antidyslipidemic activity
2 | C/C(=N/OCc1ccccc1)C1=CC[C@H]2[C@@H]3CC=C4C[C@@H](O)CC[C@]4(C)[C@H]3CC[C@]12C [Compound 10b, 3β-Hydroxy-pregna-5,16-dien-20-one-O-benzyl-oxime] | mainly antidyslipidemic activity
